{
  "source": "patent US8946275B2",
  "about": "“Treatment of cancer using hypoxia activated prodrugs” (Threshold Pharmaceuticals, Inc., priority 2008, dated 2015)",
  "key": {"H460 NSCLC": {"tested_on": "H460 NSCLC", "experiment": "H460 ectopic lung cancer model, TH-302 with pemetrexed", "assay_type": "in vivo, nude mice", "conditions": "PMX 150 mg/kg 1/wkx2wks IP; TH-302 50 mg/kg 5/wkx2wks IP; alone or combined", "description": "Anti-tumor activity was evaluated by tumor growth inhibition (TGI) and tumor growth delay (TGD). Body weight change, gross and microscopic assessment of tissue changes, and hematologic assays served for toxicity assessment.\nTesting in these models was conducted generally as follows. 1×10^6 H460 human non-small cell lung cancer or HT1080 human fibrosarcoma cells were implanted in the subcutaneous space of the right flank to obtain ectopic xenograft models. For the orthotopic pancreatic model, red-fluorescent protein (RFP) expressing MIA PaCa2 tumors were surgically implanted on the surface of the pancreas. The prostate metastatic model was created by the intraventricular injection of 3×10^6 luciferase-expressing PC-3 cells. […] API grade of TH-302 was used in all experiments while docetaxel, gemcitabine, doxorubicin and pemetrexed were purchased from commercial sources."}, "[1]": {"experiment": "Phase 1 clinical trial of TH-302 monotherapy, dose escalation", "assay_type": "in vivo, human", "description": "A Phase 1 clinical trial was conducted with TH-302. The starting dose was 7.5 mg/m^2 IV over 30-60 min administered once weekly for 3 weeks of a 4 week cycle. A modified accelerated titration design was used."}, "Solubility of TH-302": {"experiment": "Solubility of TH-302", "assay_type": "physicochemical", "conditions": "organic solvent or mixture"}, "[2]": {"tested_on": "small cell lung cancer (SCLC)", "experiment": "TH-302 monotherapy in patients with lung cancer (SCLC)", "assay_type": "in vivo, human", "description": "Eight subjects with SCLC have been treated with TH-302 monotherapy at initial doses of 480 mg/m^2 to 670 mg/m^2 as part of a 3 consecutive week dosing regimen repeated every 4 weeks (this excludes one subject dosed at 60 mg/m^2 during the initial dose escalation). RECIST tumor assessments were performed initially for seven subjects. […] One of the seven subjects continued on-study for additional cycles of treatment.\nIn this study, a person suffering from a lung cancer (a refractory small cell lung cancer) that had metastasized to liver was treated as follows. Lyophilized TH-302 was diluted with D5W and administered to the patient at an amount of 480 mg/m^2, according to the following 4 week dosing cycle: TH-302 was administered once every week for 3 weeks, on days 1, 8, and 15, followed by a week of no TH-302 administration. The patient was administered 2 cycles (i.e. 6 doses) of TH-302, and the lung and liver cancers assessed by a computed tomography (or CT) scan. […] LDH had decreased 72%, and liver function tests had normalized."}, "metastatic melanoma": {"tested_on": "metastatic melanoma", "experiment": "TH-302 monotherapy in patients with metastatic melanoma", "assay_type": "in vivo, human", "description": "As noted, TH-302 has shown benefit in patients with metastatic melanoma. The historical response rate in first-line metastatic melanoma is about 10%, so the results of treatment with TH-302 are quite remarkable. Eleven subjects with metastatic melanoma have been treated with TH-302 monotherapy at initial doses of 575 mg/m^2 to 670 mg/m^2 as part of a 3 consecutive week dosing regimen repeated every 4 weeks. RECIST tumor assessments have been performed for eight subjects. […] Four of the eight subjects continued on-study for additional dosing cycles. Two of the three subjects with a partial response continued on-study through at least Cycle 3 and Cycle 7. The other subject discontinued with clinical deterioration associated with neurological decline from brain metastases.\nA patient suffering from a primary melanoma (a skin cancer) that had metastasized to liver and lung was treated as follows. TH-302 was administered to the patient at an amount of 670 mg/m^2 using a 4 week (28 day) dosing cycle: TH-302 was administered once every week for 3 weeks, on days 1, 8, and 15, followed by a week of no TH-302 administration. The patient was administered 2 cycles of TH-302 and assessed by a CT scan.\nEnrollment in the study was expanded at the MTD in patients with metastatic melanoma. TH-302 was administered intravenously over 30-60 minutes on Days 1, 8 and 15 of a 28-day cycle. Eligible patients had ECOG≦1, at least one target lesion by RECIST, and acceptable hematologic, liver, and renal function. Patients with symptomatic brain metastases were excluded unless previously treated and well controlled for at least 3 months. Nine patients with metastatic melanoma have been treated in the study. The median age was 70 (range 23-78) with 5 females and 4 males and ECOG 0/1 in 4/5 patients. […] Metastatic sites included liver in 7 patients and lung in 6 patients. All patients had received at least one prior systemic chemotherapeutic regimen. Two serious adverse events, seizures and ascites, were reported; neither was considered related to study drug. Skin adverse events were reported in 8 patients and mucosal adverse events were reported in 4 patients including one grade 3 event. Myelosuppression was not significant, with one event of grade 3/4 neutropenia and anemia and no events of grade 3/4 thrombocytopenia. Eight patients have had RECIST tumor assessments."}, "[3]": {"conditions": "480-670 mg/m^2, weekly x3 every 4 weeks, seven subjects assessed"}, "[4]": {"conditions": "one refractory SCLC patient, 480 mg/m^2, 2 cycles"}, "[5]": {"conditions": "575-670 mg/m^2, weekly x3 every 4 weeks, eight subjects assessed"}, "[6]": {"conditions": "expansion at MTD, 8 patients assessed"}, "[7]": {"conditions": "one patient, 670 mg/m^2, 2 cycles, CT scan"}},
  "note": "Read-outs that look alike come from different tables or passages of the source.",
  "data": [
    {"smiles": "Cn1c(COP(=O)(NCCBr)NCCBr)cnc1[N+](=O)[O-]", "note": "[TH-302, (2-bromoethyl)({[(2-bromoethyl)amino][(2-nitro-3-methylimidazol-4-yl)methoxy]phosphoryl})amine]", "values": [
      {"measurement": "Days to 500 mm^3", "setting": "H460 NSCLC", "result": 26, "unit": "days"},
      {"measurement": "Days to 1000 mm^3", "setting": "H460 NSCLC", "result": 34, "unit": "days"},
      {"measurement": "T/C", "setting": "H460 NSCLC", "result": 38.4, "unit": "%"},
      {"measurement": "TGD500, Days (vs. vehicle)", "setting": "H460 NSCLC", "result": 12, "unit": "days"},
      {"measurement": "TGD1000, Days (vs. vehicle)", "setting": "H460 NSCLC", "result": 10, "unit": "days"},
      {"measurement": "TGI", "setting": "H460 NSCLC", "result": 61.6, "unit": "%"},
      {"measurement": "Tn (tumor volume on Day n)", "setting": "H460 NSCLC", "result": 507.13},
      {"measurement": "Dose limiting toxicity (DLT)", "setting": "[1]; 575 mg/m^2 weekly x3 of 4 week cycle", "result": "five of the six patients did not exhibit a DLT"},
      {"measurement": "Dose limiting toxicity (DLT)", "setting": "[1]; 670 mg/m^2 weekly x3 of 4 week cycle", "result": "Two of five patients"},
      {"measurement": "Dose limiting toxicity", "setting": "[1]; 940 mg/m^2 once every three weeks", "result": "two of six subjects have had a dose limiting toxicity"},
      {"measurement": "Patients with stable disease", "setting": "[1]; Phase 1 monotherapy, all doses", "result": 16, "unit": "patients"},
      {"measurement": "Dose limiting toxicities", "setting": "[1]; dose escalation study, monotherapy", "result": "mucositis with one grade 3 event involving the oral mucosa and one grade 3 event involving the gastrointestinal mucosa"},
      {"measurement": "Hematologic toxicity", "setting": "[1]; monotherapy", "result": "mild and limited"},
      {"measurement": "Skin and mucosal toxicity", "setting": "[1]; monotherapy", "result": "skin and mucosal toxicity was common at doses above 240 mg/m^2"},
      {"measurement": "MTD", "setting": "[1]; once every three week dosing", "result": 670, "unit": "mg/m^2"},
      {"measurement": "MTD", "setting": "[1]; once per week for three weeks of a four week cycle", "result": 575, "unit": "mg/m^2"},
      {"measurement": "solubility", "setting": "Solubility of TH-302; ethanol, even at higher temperatures, read-out: Highest solubility of TH-302 in ethanol", "result": "~80", "unit": "mg/mL"},
      {"measurement": "solubility", "setting": "Solubility of TH-302; ethanol/TWEEN 80 or ethanol/TWEEN 80/DMA, depending on the ratio, read-out: Solubility of TH-302", "result": "≤ 300", "unit": "mg/mL"},
      {"measurement": "Partial responses (RECIST)", "setting": "[2]; [3]", "result": "Two of seven subjects"},
      {"measurement": "Stable disease (RECIST)", "setting": "[2]; [3]", "result": "three of these same seven subjects"},
      {"measurement": "Decrease in sum of the longest diameters [SLD] of target lesions", "setting": "[2]; [4]", "result": 44, "unit": "%"},
      {"measurement": "LDH decrease", "setting": "[2]; [4]", "result": 72, "unit": "%"},
      {"measurement": "Reduction in area of cancer in lung and liver", "setting": "[2]; [4]", "result": "over 50%"},
      {"measurement": "Response", "setting": "[2]; three other patients with lung cancer (one NSCLC, 2 SCLC)", "result": "stable disease"},
      {"measurement": "Partial responses (RECIST)", "setting": "metastatic melanoma; [5]", "result": "Three of the eight subjects"},
      {"measurement": "Stable disease (RECIST)", "setting": "metastatic melanoma; [5]", "result": "three of eight subjects"},
      {"measurement": "RECIST partial responses", "setting": "metastatic melanoma; expansion at MTD, Days 1, 8, 15 of 28-day cycle, 8 patients assessed", "result": 37, "unit": "%"},
      {"measurement": "Ongoing stable disease after 2 months of therapy", "setting": "metastatic melanoma; [6]", "result": 38, "unit": "%"},
      {"measurement": "Progressive disease", "setting": "metastatic melanoma; [6]", "result": 25, "unit": "%"},
      {"measurement": "Mucosal adverse events", "setting": "metastatic melanoma; nine patients treated", "result": 4, "unit": "patients"},
      {"measurement": "Skin adverse events", "setting": "metastatic melanoma; nine patients treated", "result": 8, "unit": "patients"},
      {"measurement": "Decrease in SLD of target lesions", "setting": "metastatic melanoma; [7]", "result": 53, "unit": "%"},
      {"measurement": "Reduction in area of cancer in lung and liver", "setting": "metastatic melanoma; [7]", "result": "over 50%"}
    ]}
  ]
}
